From patent publication US8580814B2, “Methods of using (+)-1,4-dihydro-7-[(3S,4S)-3-methoxy-4-(methylamino)-1-pyrrolidinyl]-4- oxo-1-(2-thiazolyl)-1,8-naphthyridine-3-carboxylic acid for treatment of cancer” (priority 2006, dated 2013)
In brackets after ≈: the same amount, converted by molar mass. Marks after values point to notes of the source that are not given here. Each block holds one compound with its values, some of them ahead of it.

How the values were obtained:
[1] = tested on: HCT-116 cells with 6 fold lower ATR levels; experiment: MTT assay, sensitization (ATRFLOX); assay type: cell-based; details: compound 72 hours
Procedure: (§1) Cells were then incubated with 5% MTT for 1-2 hours and lysed. MTT was colorimetrically read at 570 nm and EC50's were determined using linear regression analysis.
(§2) Sensitization was carried out with various chemical treatments.

[2] = tested on: MO59J (DNAPKcs(−/−)) vs MO59K (DNAPKCs(+/+)); experiment: MTT assay, sensitization (DNAPKcs(−/−)); assay type: cell-based; details: MO59J (DNAPKcs(−/−)) vs MO59K (DNAPKCs(+/+)); compound 72 hours
Procedure: as §1, §2

[3] = tested on: HCT-116 cells treated with 2 mM caffeine; experiment: MTT assay, sensitization (caffeine); assay type: cell-based; details: 2 mM caffeine pre-treated for 16 hours, compound 72 hours
Procedure: as §1, §2

[4] = tested on: CCRF-CEM acute lymphoblastic leukemia tumor; experiment: CCRF-CEM xenograft model; assay type: in vivo, nude mice
Procedure: CCRF-CEM acute lymphoblastic leukemia tumor lobes of 2-3 mm square were transplanted subcutaneously into nude mice. Tumors were allowed to grow to approximately 8-20 mm in diameter. […] Acceptable toxicity was defined as a mean group weight loss of 30% or less and not more than one toxic death among 6 treated animals. Anti-tumor activities of the drugs were assessed 20 or 21 days after the start of administration. Table 14 provides data for tumor inhibition (TI) and survival rate in the CCRF-CEM and LM3-Jck xenograft models.

[5] = tested on: LM3-Jck human malignant lymphoma tumor; experiment: LM3-Jck xenograft model; assay type: in vivo, nude mice
Procedure: LM3-Jck human malignant lymphoma tumor lobes (2-3 mm square) were transplanted subcutaneously into nude mice. Tumors were allowed to grow to approximately 7-14 mm in diameter. […] Acceptable toxicity was defined as a mean group weight loss of 30% or less and not more than one toxic death among 6 treated animals. Anti-tumor activities of the drugs were assessed 21 days after the start of administration.

[6] = tested on: CCRF-CEM (lymphoblastic leukemia); experiment: MTT cell viability assay, leukemia cells; assay type: cell-based; details: Homo sapiens, MTT after 72 hours
Procedure: (§3) The following cell lines were used in this assay: HL-60 (promyelocytic leukemia); Jurkat (T cell leukemia); CCRF-CEM (lymphoblastic leukemia); CEM/C2 (camptothecan resistant derivative of CCRF-CEM). Cells were seeded in 96 wells plates at 3000 cells per well and incubated for 16 hours. […] Titrations were diluted 1:100 in media to achieve final compound concentrations. The 96 well plates were aspirated and compound dilutions in media were added ([…]). MTT analysis was carried out after 72 hours of incubation at 37° C. Briefly, […] of MTT solution was added to each well. Cells were incubated at 37° C. for 1-2 hours. […] Plates were read on a spectromax machine with an absorbance measurement at […]. IC50's were calculated (data provided in Table 13) using regression analysis within GraphPad Prism.

[7] = tested on: CEM/C2 (camptothecan resistant derivative of CCRF-CEM); experiment: MTT cell viability assay, leukemia cells; assay type: cell-based; details: Homo sapiens; CEM/C2, MTT after 72 hours
Procedure: as §3

[8] = tested on: HL-60 (promyelocytic leukemia); experiment: MTT cell viability assay, leukemia cells; assay type: cell-based; details: Homo sapiens; HL-60, MTT after 72 hours
Procedure: as §3

Compound: CC[C@@]1(O)C(=O)OCc2c1cc1n(c2=O)Cc2cc3ccccc3nc2-1 [Camptothecin, reference compound]
Sensitization, fold decrease in the EC50 for cytotoxicity (MTT): ATRFLOX [1]: 5 fold | Sensitization, fold decrease in the EC50 for cytotoxicity (MTT): DNAPKcs(−/−) [2]: 0.7 fold | Sensitization, fold decrease in the EC50 for cytotoxicity (MTT): Caffeine [3]: 6 fold

Compound: COc1cc([C@@H]2c3cc4c(cc3[C@@H](O[C@@H]3O[C@@H]5CO[C@@H](C)O[C@H]5[C@H](O)[C@H]3O)[C@H]3COC(=O)[C@H]23)OCO4)cc(OC)c1O [Etoposide, etoposide, reference compound]
IR (%) (tumor inhibition rate) ([4]; qd X 5, IV, 12 mg/kg): 28.3% | IR (%) (tumor inhibition rate) ([5]; LM3-JcK, qd X 5, IV, 12 mg/kg): 3.0%

Compound: CCc1c2c(nc3ccc(OC(=O)N4CCC(N5CCCCC5)CC4)cc13)-c1cc3c(c(=O)n1C2)COC(=O)[C@]3(O)CC [Irinotecan, irinotecan, reference compound]
IR (%) (tumor inhibition rate) ([4]; q4d x3, IV, 100 mg/kg): 99.7* % | Survival Ratio ([4]; q4d x3, IV, 100 mg/kg): 5/6 | IR (%) (tumor inhibition rate) ([5]; LM3-JcK, q4d x3, IV, 100 mg/kg): 97.7* % | Survival Ratio ([5]; LM3-JcK, q4d x3, IV, 100 mg/kg): 6/6

IC50 [6]: 0.003 µg/mL (≈ 0.00552 µM) | IC50 [7]: 0.017 µg/mL (≈ 0.0313 µM) | IC50 [8]: 0.024 µg/mL (≈ 0.0442 µM)
Compound: COc1cccc2c1C(=O)c1c(O)c3c(c(O)c1C2=O)C[C@@](O)(C(=O)CO)C[C@@H]3O[C@H]1C[C@H](N)[C@H](O)[C@H](C)O1 [Doxorubicin, doxorubicin, reference compound]
IR (%) (tumor inhibition rate) ([4]; q7d X3, IV, 12 mg/kg): 50.3* % | IR (%) (tumor inhibition rate) ([5]; LM3-JcK, q7d X3, IV, 12 mg/kg): 57.2* % | Survival Ratio ([5]; nude, mouse, in vivo, iv, 12 mg/kg, 21 days): 6/6
